Assay results: patent US20210353579A1, “HIGH PENETRATION COMPOSITIONS AND USES THEREOF” (Techfields Pharma Co., Ltd., priority 2006, published 2021)

Assays:
[1] = test system: rats (SLAC/GK, type 2 diabetes); test: Blood lipid in type 2 diabetes rats, oral with food; type: in vivo, rat
How it was run: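 Compounds (dosed equivalent to 20 mg/kg of NSAIAs) mixed in food and given orally daily for 5 weeks to rats (n=7). Non-fasting blood glucose measured every 3 days at 3 pm from week 2 to week 5; blood lipids measured at end of week 5.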

Chinese white rabbits = test: Autologous blood clot pulmonary embolization, thrombus propagation; type: in vivo, rabbit; conditions: 20 mg/kg topically, after 2 days
Description: Eighteen Chinese White rabbits weighing between 3.0 and 3.5 kg (aged 6-7 months) were selected and divided into three groups (control, P-1 and […] groups, n=6). One hour before the experiment, thrombi were made by aspirating venous blood (1 ml) into a sterilized bottle to clot. To avoid fragmentation and slow lysis, the autologous blood clots were stabilized in temperature-controlled (70° C.) distilled water for 10 min. After anesthesia, the femoral veins were exposed and distally isolated, and autologous blood clots (0.05 g/kg) were injected through an indwelling catheter (20 GA), which had been placed in the femoral vein isolated earlier. 50% acetone solution of diethylaminoethyl acetylsalicylate.acetylsalicylic acid salt (P-1, in acetone, 20 mg/kg) and diethylaminoethyl acetylsalicylsalicylate. acetylsalicylsalicylic acid salt (P-59, 20 mg/kg) were topically applied to the back of the rabbits. After 2 days, rabbits were euthanized with an excessive intravenous injection of sodium amobarbital (60 mg/kg). The lungs and hearts were isolated to observe whether thrombi were present in the pulmonary arteries. The lungs were immersed in 10% formalin for 24 h. Consecutive transverse sections along the obstructed pulmonary arteries were paraffin-embedded and stained with hematoxylin-eosine. […]

normal rats [2] = test: Blood glucose in normal rats, transdermal; type: in vivo, rat
How it was run: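 Compounds equivalent to 20 mg/kg NSAIA were applied transdermally to a shaved ~1.5 cm^2 area of rat backs once daily at 8 am for 5 weeks (n=7). Non-fasting blood glucose was measured every 3 days at 3 pm from week 2 to week 5, and blood lipids at the end of week 5.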

mice (MRL/LPR) = test: Anti-lupus erythematosus activity; type: in vivo, mouse; conditions: 30 mg/kg topically twice per day, after 6 weeks
[3] = test system: mice (SLAC:NOD-IDDM, type 1 diabetes); test: Blood glucose in type 1 diabetes mice, transdermal; type: in vivo, mouse
How it was run: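 NOD-IDDM type 1 diabetic mice (n=7) received prodrug transdermally on shaved back skin (~1.5 cm²), at a dose equivalent to 30 mg/kg NSAIA, once daily for 7 weeks. Non-fasted blood glucose was measured every 3 days at 3 pm from week 4 to week 7.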

[4] = test system: rats (SLAC/GK, type 2 diabetes); test: Blood lipid in type 2 diabetes rats, transdermal; type: in vivo, rat
How it was run: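 GK type 2 diabetic rats (n=7) received the HPPs transdermally on a shaved ~1.5 cm^2 area of the back, at a dose equal to 20 mg/kg of NSAIAs, once daily for 5 weeks. Non-fasting blood glucose was measured every 3 days at 3 pm from week 2 to week 5, and blood lipids at the end of week 5.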

normal rats [5] = test: Blood glucose in normal rats, oral with food; type: in vivo, rat
[6] = baseline, equal to 20 mg/kg of NSAIAs
[7] = end of the fifth week, equal to 20 mg/kg of NSAIAs every day
[8] = end of the fifth week, equal to 20 mg/kg of NSAIAs once per day

CC(=O)Oc1ccccc1C(=O)O.CCN(CC)CCOC(=O)c1ccccc1OC(C)=O [P-1, diethylaminoethyl acetylsalicylate.acetylsalicylic acid salt]
Cholesterol (HDL), Baseline [1, 6]: 1.5 ± 0.2 mmol/L | Cholesterol (total), Baseline [1, 6]: 7.6 ± 0.4 mmol/L | Triglycerides, Baseline [1, 6]: 5.7 ± 0.5 mmol/L | Cholesterol (HDL), Average [1, 7]: 1.6 ± 0.2 mmol/L | Cholesterol (total), Average [1, 7]: 4.1 ± 0.3 mmol/L | Triglycerides, Average [1, 7]: 1.4 ± 0.2 mmol/L | lung tissue and vascular walls (thrombus propagation) (Chinese white rabbits): both lung tissue and vascular walls were normal | Blood glucose, Average (normal rats [2]; normal rats (second Average line of Table 24), average second to fifth week, equal to 20 mg/kg of NSAIAs once per day): 6.3 ± 1 mmol/L | Blood glucose, Baseline (normal rats [2]; normal rats (second Baseline line of Table 24), baseline, equal to 20 mg/kg of NSAIAs): 6.4 ± 1 mmol/L | skin lesions and lupus nephritis (mice (MRL/LPR)): all skin lesions and lupus nephritis were resolved | Blood glucose, Average ([3]; average fourth to seventh week, no fasting, equal to 30 mg/kg of NSAIAs once per day for 7 weeks): 6.5 ± 1 mmol/L | Blood glucose, Baseline ([3]; baseline, equal to 30 mg/kg of NSAIAs): 26.1 ± 5 mmol/L | Cholesterol (HDL), Baseline [4, 6]: 1.4 ± 0.2 mmol/L | Cholesterol (total), Baseline [4, 6]: 7.7 ± 0.4 mmol/L | Triglycerides, Baseline [4, 6]: 5.4 ± 0.5 mmol/L | Cholesterol (HDL), Average [4, 8]: 1.5 ± 0.2 mmol/L | Cholesterol (total), Average [4, 8]: 4.0 ± 0.3 mmol/L | Triglycerides, Average [4, 8]: 1.5 ± 0.2 mmol/L | Blood glucose, Normal rats, Average (normal rats [5]; average second to fifth week, equal to 20 mg/kg of NSAIAs every day): 6.5 ± 1 mmol/L | Blood glucose, Normal rats, Baseline (normal rats [5]; [6]): 6.3 ± 1 mmol/L
